US10392346B2, “Kinase inhibitors” (Topivert Pharma Limited, priority 2014, dated 2019)
Counter-ions that a name gives are not always drawn.

How the values were obtained:
[1] = Hydrolytic stability study; format: physicochemical; settings: 1 mg/mL; for % Parent Remaining: DMSO/water (3:1)
Procedure: Chemical stability of compounds of the invention was assessed in a mixture of DMSO and water (3:1) at a test compound concentration of 1 mg/mL.
General HPLC Procedure • Agilent, Waters X-Select C18, 2.5 μm, 4.6×30 mm column, 4 min method, 5-95% MeCN/water (0.1% formic acid). Flow rate 2.5 mL/min. Column Oven Temperature 40° C. Detection 254 nm.
Sample Preparation • A 1.0 mg sample of test compound was dissolved in 750 μL of DMSO. Water (250 μL) was added slowly, ensuring no precipitation occurred.
Recording Stability • A 50 μL aliquot of the test solution was removed and analysed in duplicate by 5 μL HPLC injections. The peak area for the test compound was recorded following manual integration of the corresponding UV trace. • The test solution was heated to 60° C., with stirring, and 50 μL aliquots removed for HPLC analysis at 5 and 24 h timepoints.

[2] = tested on: Salmonella typhimurium, strains TA1535, TA1537, TA98 and TA100; assay: Bacterial reverse mutation screen (plate incorporation); settings: for limit of solubility in the mutation test: all strains; for limit of solubility in the mutation test / mutagenic effects (revertant numbers): presence and absence of S-9 mix; for toxicity to the bacteria (mean colony count): at 500-5000 μg/plate in some strains
[3] = tested on: Escherichia coli, WP2 uvrA; assay: as above; settings: for mutagenic effects (revertant numbers): presence and absence of S-9 mix
[4] = Stability of pharmaceutical formulations; format: physicochemical; settings: for Purity (%) at week n = 4: 4 weeks
Procedure: The samples were sonicated to achieve clear solutions having the following properties: Osmolality (mOsm/kg): 310 (Na), 314 (HCl); pH: 7.00 (Na), 7.05 (HCl). 0.5 mL of the stock solutions were diluted to 1 mL with 20% DMSO in water & injected for purity analysis by HPLC. The remaining stock solutions were then split into aliquots of 0.5 mL in HPLC vials, and stored at various conditions in duplicate. Samples were stored at 5 and 25° C., before being analysed by HPLC at 1, 2 and 4 weeks. Separate samples were stored at 40° C. and analysed at 4 weeks.

LPS-stimulated rats = assay: Endotoxin-induced uveitis in rats (assay vi); format: in vivo, rat; settings: rats treated with intravitreal endotoxin LPS
Procedure: Male, Lewis rats (6-8 weeks old, Charles River UK Limited) are housed in cages of 3 at 19-21° C. with a 12 h light/dark cycle (07:00/19:00) and fed a standard diet of rodent chow and water ad libitum. Non-fasted rats are weighed, individually identified on the tail with a permanent marker, and receive a single intravitreal administration into the right vitreous humor (5 μL dose volume) of 100 ng/animal of LPS (Escherichia coli 0111:B4 prepared in PBS, Sigma Aldrich, UK) using a 32-gauge needle. Untreated rats are injected with PBS. Test compound or vehicle (4% polyoxyl 40 stearate, 4% mannitol in PBS (pH 7.4)) are administered by the topical route onto the right eye (10 μL) of animals 1 hour prior to LPS, at the time of LPS administration, and 1, 2 and 4 hours post LPS administration. Before administration, the solution to be administered is sonicated to ensure a clear solution. 6 hours after LPS dosing, animals are euthanized by overdose with pentobarbitone (via cardiac puncture) Immediately after euthanasia, 10 μL of aqueous humor is collected from the right eye of the rats by puncture of the anterior chamber using a 32 gauge needle under a surgical microscope. The aqueous humor is diluted in 20 μL of PBS and total cell counts are measured immediately using a Countess automated cell counter (Invitrogen). […]

[5] = tested on: eyes of albino New Zealand White rabbits; settings: Phase 1, one treatment day, 0.1 and 1.0 mg/mL
non-mutant kinases = assay: KinomeScan selectivity scores; format: binding; settings: for KinomeScan Selectivity Score S(1): kinases with % Ctrl <1 / kinases tested; for KinomeScan Selectivity Score S(10): kinases with % Ctrl <10 / kinases tested; for kinase selectivity compared to the Reference Compound: KINOMEscan selectivity scores
Description: These assays may be conducted by DiscoverX (formerly Ambit; San Diego, Calif.).

Crohn's patients = settings: transient, baseline by week 8; cited from earlier work
[6] = tested on: patients with severe Crohn's disease; settings: over 8 weeks; cited from earlier work
[7] = tested on: rheumatoid arthritis patients; settings: cited from earlier work
[8] = 60° C., 24 h timepoint (1429-1450 min)

COc1cc(Nc2cc(Oc3ccc(NC(=O)Nc4cc(C(C)(C)C)cc(NS(C)(=O)=O)c4OC)c4ccccc34)ccn2)ccc1P(C)(=O)O [Example 44, (4-((4-((4-(3-(5-(tert-Butyl)-2-methoxy-3-(methylsulfonamido)phenyl)ureido)naphthalen-1-yl)oxy)pyridin-2-yl)amino)-2-methoxyphenyl)(methyl)phosphinic acid]
% Parent Remaining [1, 8]: 98%
% Parent Remaining ([1]; time 0 min): 100%
limit of solubility in the mutation test [2]: 5000 μg/plate
toxicity to the bacteria (mean colony count) [2]: reduction in the mean colony count
mutagenic effects (revertant numbers) [2]: absence of any mutagenic effects
toxicity to the bacteria (mean colony count) ([3]; 5000 μg/plate, absence of S-9 mix): reduction in the mean colony count
mutagenic effects (revertant numbers) [3]: absence of any mutagenic effects

COc1cc(Nc2cc(Oc3ccc(NC(=O)Nc4cc(C(C)(C)C)cc(NS(C)(=O)=O)c4OC)c4ccccc34)ccn2)ccc1C(=O)O [Example 1, 4-((4-((4-(3-(5-(tert-Butyl)-2-methoxy-3-(methylsulfonamido)phenyl)ureido)naphthalen-1-yl)oxy)pyridin-2-yl)amino)-2-methoxybenzoic acid]
stability in solution ([4]; 1 mg/mL Na and HCl salts, 10 mM pH 7.2 phosphate buffer, 4.5% mannitol, 3% polyoxyl 40 stearate, 5° C., up to 4 weeks): stable
limit of solubility in the mutation test [2]: 1500 μg/plate
toxicity to the bacteria (mean colony count) [2]: reduction in the mean colony count
mutagenic effects (revertant numbers) [2]: absence of any mutagenic effects
mutagenic effects (revertant numbers) [3]: absence of any mutagenic effects
cellular infiltration (cell counts) in the eyes (LPS-stimulated rats): significantly and dose-dependently reduced
cytokine IL-1β levels in anterior and posterior segments of the eyes (LPS-stimulated rats): significantly and dose-dependently reduced
ocular reactions versus vehicle controls [5]: no differences in the frequency, severity and incidence

COc1cc(Nc2cc(Oc3ccc(NC(=O)Nc4cc(C(C)(C)C)cc(NS(C)(=O)=O)c4OC)c4ccccc34)ccn2)cc(OC)c1C(=O)NCCOCCOCCO [Example 36, 4-((4-((4-(3-(5-(tert-Butyl)-2-methoxy-3-(methylsulfonamido)phenyl)ureido)naphthalen-1-yl)oxy)pyridin-2-yl)amino)-N-(2-(2-(2-hydroxyethoxy)ethoxy)ethyl)-2,6-dimethoxybenzamide]
KinomeScan Selectivity Score S(1) (non-mutant kinases; 50 nM): 0.002
KinomeScan Selectivity Score S(10) (non-mutant kinases; 50 nM): 0.050
KinomeScan Selectivity Score S(1) (non-mutant kinases; 500 nM): 0.079
kinase selectivity compared to the Reference Compound (non-mutant kinases): improved selectivities

C#Cc1cc(Nc2nccc(Oc3ccc(NC(=O)Nc4cc(C(C)C)nn4-c4ccc(C)cc4)c4ccccc34)n2)cc(C(=O)NCCN2CCOCC2)c1 [Reference Compound B, 3-ethynyl-5-((4-((4-(3-(3-isopropyl-1-(p-tolyl)-1H-pyrazol-5-yl)ureido)naphthalen-1-yl)oxy)pyrimidin-2-yl)amino)-N-(2-morpholinoethyl)benzamide, reference compound]
decomposition (hydrolytic stability) ([1]; DMSO and water (3:1), 60° C., 5 and 24 h): underwent substantial decomposition
% Parent Remaining ([1]; 60° C., 5 h timepoint (297-317 min)): 79%
% Parent Remaining [1, 8]: 18%
% Parent Remaining ([1]; time 0 min): 100%

COc1cc(Nc2cc(Oc3ccc(NC(=O)Nc4cc(C(C)(C)C)cc(NS(C)(=O)=O)c4OC)c4ccccc34)ccn2)ccc1C(=O)O.Cl [Example 1, hydrochloride salt, 4-((4-((4-(3-(5-(tert-butyl)-2-methoxy-3-(methylsulfonamido)phenyl)ureido)naphthalen-1-yl)oxy)pyridin-2-yl)amino)-2-methoxybenzoic acid, hydrochloride salt]
Purity (%) at week n = 2 ([4]; 1 mg/mL buffered solution stored at 5° C., 2 weeks, duplicate samples, hydrochloride salt): 98.0%
Purity (%) at week n = 4 ([4]; 1 mg/mL buffered solution stored at 5° C., duplicate samples, hydrochloride salt): 98.0%
Purity (%) at week n = 1 ([4]; 1 mg/mL buffered solution stored at 25° C., 1 week, duplicate samples): 98.0%

COc1cc(Nc2cc(Oc3ccc(NC(=O)Nc4cc(C(C)(C)C)cc(NS(C)(=O)=O)c4OC)c4ccccc34)ccn2)ccc1C(=O)O [Example 1, sodium salt]
Purity (%) at week n = 4 ([4]; 1 mg/mL buffered solution stored at 40° C., duplicate samples): 76.0%

Cc1ccc(-n2nc(C(C)(C)C)cc2NC(=O)Nc2ccc(OCCN3CCOCC3)c3ccccc23)cc1 [BIRB796]
clinical benefit (C-reactive protein levels) (Crohn's patients): improvement in C-reactive protein levels

COc1cc(Nc2cc(Oc3ccc(NC(=O)Nc4cc(C(C)(C)C)cc(NS(C)(=O)=O)c4OC)c4ccccc34)ccn2)cc(OC)c1C(=O)NCCOCCOCCOP(=O)(O)O [Example 47, 2-(2-(2-(4-((4-((4-(3-(5-(tert-butyl)-2-methoxy-3-(methylsulfonamido)phenyl)ureido)-naphthalen-1-yl)oxy)pyridin-2-yl)amino)-2,6-dimethoxybenzamido)ethoxy)ethoxy)ethyl dihydrogen phosphate]
KinomeScan Selectivity Score S(10) (non-mutant kinases; 50 nM): 0.042
KinomeScan Selectivity Score S(1) (non-mutant kinases; 500 nM): 0.074
kinase selectivity compared to the Reference Compound (non-mutant kinases): improved selectivities
% Parent Remaining [1, 8]: 89%
% Parent Remaining ([1]; time 0 min): 100%

C/C(=N\N=C(N)N)c1cc(NC(=O)CCCCCCCCC(=O)Nc2cc(/C(C)=N/N=C(N)N)cc(/C(C)=N/N=C(N)N)c2)cc(/C(C)=N/N=C(N)N)c1.Cl.Cl.Cl.Cl [CNI-1493]
clinical score [6]: significant improvement in clinical score

COc1cc(Nc2ncc(F)c(Nc3ccc4c(n3)N(COP(=O)(O)O)C(=O)C(C)(C)O4)n2)cc(OC)c1OC [Fostamatinib]
clinical outcome and serum IL-6 and MMP-3 [7]: improved clinical outcome and reduced serum levels of IL-6 and MMP-3
